System: individuals who have previously had an MI
Assay: CARE trial: effect of pravastatin vs placebo on coronary events (endpt1, rmi) by SNP genotype subgroup
Format: in vivo, human
Procedure: In Tables 21-22, the column labeled “Endpoint” indicates whether the endpoint that was analyzed was the primary endpoint of the CARE study (a composite endpoint of fatal coronary event or nonfatal MI, and identified as “endpt1”) or a composite endpoint of confirmed fatal or nonfatal MI (identified as “rmi”). […] As used herein, the term “benefit” (with respect to a preventive or therapeutic drug treatment) is defined as achieving a reduced risk for a disease that the drug is intended to treat or prevent (e.g., CVD such as CHD, particularly MI, or hypertension) by administering the drug treatment, compared with the risk for the disease in the absence of receiving the drug treatment (or receiving a placebo in lieu of the drug treatment) for the same genotype. […] J. […] (1996) New England Journal of Medicine 335: 1001-1009. […] A well-documented MI was one of the enrollment criteria for entry into the CARE study. Patients were enrolled in the CARE trial from 80 participating study centers. […] For the study of CARE described in this Example and shown in Tables 21-22, two endpoints were investigated: the primary endpoint of CARE (a composite endpoint of fatal coronary event or nonfatal MI, and identified as “endpt1” in the Endpoint column of Tables 21-22) and a composite endpoint of confirmed fatal or nonfatal MI (identified as “rmi” in the Endpoint column of Tables 21-22). […] HR stands for Hazard Ratio, which is a concept similar to Odds Ratio (OR). The HR in event-free survival analysis is the effect of an explanatory variable on the hazard or risk of an event. […] In Table 21, p-interaction values were calculated. An interaction (or effect modification) is formed when a third variable modifies the relation between an exposure and outcome. […] Genotype and drug interaction is present when the effect of statins (incidence rate of disease in statin-treated group, as compared to placebo) differs in patients with different genotypes.

[1] = endpt1, hCV370782 rs9841174 SERPINI2, CC
[2] = endpt1, hCV370782 rs9841174 SERPINI2, CT + TT
[3] = endpt1, hCV795442 rs375947 IL12RB1, AA
[4] = endpt1, hCV795442 rs375947 IL12RB1, GA + GG
[5] = endpt1, hCV818008 rs5918 ITGB3, CC
[6] = endpt1, hCV818008 rs5918 ITGB3, CT + TT
[7] = endpt1, hCV904973 rs7412 APOE, CC
[8] = endpt1, hCV904973 rs7412 APOE, TC + TT
[9] = endpt1, hCV997884 rs512770, AG + GG
[10] = endpt1, hCV2553030 rs11230562 CD6, TC + CC
[11] = endpt1, hCV2553030 rs11230562 CD6, TT
[12] = endpt1, hCV2769554 rs1805010 IL4R, GA + AA
[13] = endpt1, hCV2769554 rs1805010 IL4R, GG
[14] = endpt1, hCV2822674 rs1801222 CUBN, AA
[15] = endpt1, hCV2822674 rs1801222 CUBN, AG + GG
[16] = endpt1, hCV2983036 rs9527025 KL, CC
[17] = endpt1, hCV2983036 rs9527025 KL, CG
[18] = endpt1, hCV2983036 rs9527025 KL, GG
[19] = endpt1, hCV2992252 rs6037651 SIGLEC1, CC
[20] = endpt1, hCV2992252 rs6037651 SIGLEC1, CT + TT
[21] = endpt1, hCV3135085 rs10795446 CUBN, GG
[22] = endpt1, hCV3187716 rs5186 AGTR1, CA + AA
[23] = endpt1, hCV3187716 rs5186 AGTR1, CC
[24] = endpt1, hCV3215409 rs267561 ITGA9, GA + AA
[25] = endpt1, hCV3215409 rs267561 ITGA9, GG
[26] = endpt1, hCV3219460 rs1799983 NOS3, TG + GG
[27] = endpt1, hCV3219460 rs1799983 NOS3, TT
[28] = endpt1, hCV7514870 rs1041981 LTA, AA
[29] = endpt1, hCV7514870 rs1041981 LTA, AC + CC
[30] = endpt1, hCV8705506 rs5516 KLK1, CG + CC
[31] = endpt1, hCV8705506 rs5516 KLK1, GG
[32] = endpt1, hCV8708473 rs1800469 TMEM91, AA
[33] = endpt1, hCV8708473 rs1800469 TMEM91, AG + GG
[34] = endpt1, hCV8708474 rs1800468 MGC4093, CC
[35] = endpt1, hCV8708474 rs1800468 MGC4093, TC + TT
[36] = endpt1, hCV8709053 rs4880 SOD2, GA + AA
[37] = endpt1, hCV8709053 rs4880 SOD2, GG
[38] = endpt1, hCV8718197 rs1050998 CXCL16, AA
[39] = endpt1, hCV8718197 rs1050998 CXCL16, GA + GG
[40] = endpt1, hCV8726337 rs5498 ICAM1, AA
[41] = endpt1, hCV8726337 rs5498 ICAM1, GA + GG
[42] = endpt1, hCV8737990 rs419598 IL1RN, CC
[43] = endpt1, hCV8737990 rs419598 IL1RN, CT + TT
[44] = endpt1, hCV8784787 rs688976, AA
[45] = endpt1, hCV8784787 rs688976, AC + CC
[46] = endpt1, hCV8804621 rs1390938 SLC18A1, AA
[47] = endpt1, hCV8804621 rs1390938 SLC18A1, AG + GG
[48] = endpt1, hCV8848630 rs7192 HLA-DRA, GG
[49] = endpt1, hCV8848630 rs7192 HLA-DRA, TG + TT
[50] = endpt1, hCV8851047 rs45614833 HLA-DPA1, CC

SMILES: CC[C@H](C)C(=O)O[C@H]1C[C@H](O)C=C2C=C[C@H](C)[C@H](CC[C@@H](O)C[C@@H](O)CC(=O)O)[C@H]21 [pravastatin]
- Hazard ratio, Pravastatin vs placebo (CARE, SNP hCV11170747, genotype strata in row order): 0.87
- EVENTS (Pravastatin arm) [1]: 20
- NONEVENT (Pravastatin arm) [1]: 194
- EVENTS (Pravastatin arm) [2]: 113
- NONEVENT (Pravastatin arm) [2]: 1097
- EVENTS (Pravastatin arm) [3]: 52
- NONEVENT (Pravastatin arm) [3]: 599
- EVENTS (Pravastatin arm) [4]: 80
- NONEVENT (Pravastatin arm) [4]: 691
- EVENTS (Pravastatin arm) [5]: 7
- NONEVENT (Pravastatin arm) [5]: 26
- EVENTS (Pravastatin arm) [6]: 126
- NONEVENT (Pravastatin arm) [6]: 1266
- EVENTS (Pravastatin arm) [7]: 114
- NONEVENT (Pravastatin arm) [7]: 1149
- EVENTS (Pravastatin arm) [8]: 19
- NONEVENT (Pravastatin arm) [8]: 141
- EVENTS (Pravastatin arm) (endpt1, hCV997884 rs512770, AA): 5
- NONEVENT (Pravastatin arm) (endpt1, hCV997884 rs512770, AA): 42
- EVENTS (Pravastatin arm) [9]: 126
- NONEVENT (Pravastatin arm) [9]: 1241
- EVENTS (Pravastatin arm) [10]: 129
- NONEVENT (Pravastatin arm) [10]: 1179
- EVENTS (Pravastatin arm) [11]: 3
- NONEVENT (Pravastatin arm) [11]: 107
- EVENTS (Pravastatin arm) [12]: 101
- NONEVENT (Pravastatin arm) [12]: 1001
- EVENTS (Pravastatin arm) [13]: 32
- NONEVENT (Pravastatin arm) [13]: 287
- EVENTS (Pravastatin arm) [14]: 10
- NONEVENT (Pravastatin arm) [14]: 150
- EVENTS (Pravastatin arm) [15]: 123
- NONEVENT (Pravastatin arm) [15]: 1140
- EVENTS (Pravastatin arm) [16]: 4
- NONEVENT (Pravastatin arm) [16]: 22
- EVENTS (Pravastatin arm) [17]: 32
- NONEVENT (Pravastatin arm) [17]: 363
- EVENTS (Pravastatin arm) [18]: 97
- NONEVENT (Pravastatin arm) [18]: 906
- EVENTS (Pravastatin arm) [19]: 8
- NONEVENT (Pravastatin arm) [19]: 196
- EVENTS (Pravastatin arm) [20]: 124
- NONEVENT (Pravastatin arm) [20]: 1089
- EVENTS (Pravastatin arm) [21]: 10
- NONEVENT (Pravastatin arm) [21]: 147
- EVENTS (Pravastatin arm) [22]: 128
- NONEVENT (Pravastatin arm) [22]: 1176
- EVENTS (Pravastatin arm) [23]: 5
- NONEVENT (Pravastatin arm) [23]: 112
- EVENTS (Pravastatin arm) [24]: 118
- NONEVENT (Pravastatin arm) [24]: 1057
- EVENTS (Pravastatin arm) [25]: 15
- NONEVENT (Pravastatin arm) [25]: 235
- EVENTS (Pravastatin arm) [26]: 124
- NONEVENT (Pravastatin arm) [26]: 1114
- EVENTS (Pravastatin arm) [27]: 9
- NONEVENT (Pravastatin arm) [27]: 177
- EVENTS (Pravastatin arm) [28]: 12
- NONEVENT (Pravastatin arm) [28]: 172
- EVENTS (Pravastatin arm) [29]: 121
- NONEVENT (Pravastatin arm) [29]: 1118
- EVENTS (Pravastatin arm) [30]: 66
- NONEVENT (Pravastatin arm) [30]: 749
- EVENTS (Pravastatin arm) [31]: 67
- NONEVENT (Pravastatin arm) [31]: 543
- EVENTS (Pravastatin arm) [32]: 9
- NONEVENT (Pravastatin arm) [32]: 139
- EVENTS (Pravastatin arm) [33]: 124
- NONEVENT (Pravastatin arm) [33]: 1153
- EVENTS (Pravastatin arm) [34]: 103
- NONEVENT (Pravastatin arm) [34]: 1068
- EVENTS (Pravastatin arm) [35]: 30
- NONEVENT (Pravastatin arm) [35]: 212
- EVENTS (Pravastatin arm) [36]: 105
- NONEVENT (Pravastatin arm) [36]: 954
- EVENTS (Pravastatin arm) [37]: 28
- NONEVENT (Pravastatin arm) [37]: 335
- EVENTS (Pravastatin arm) [38]: 33
- NONEVENT (Pravastatin arm) [38]: 409
- EVENTS (Pravastatin arm) [39]: 98
- NONEVENT (Pravastatin arm) [39]: 879
- EVENTS (Pravastatin arm) [40]: 31
- NONEVENT (Pravastatin arm) [40]: 430
- EVENTS (Pravastatin arm) [41]: 102
- NONEVENT (Pravastatin arm) [41]: 857
- EVENTS (Pravastatin arm) [42]: 15
- NONEVENT (Pravastatin arm) [42]: 96
- EVENTS (Pravastatin arm) [43]: 117
- NONEVENT (Pravastatin arm) [43]: 1193
- EVENTS (Pravastatin arm) [44]: 6
- NONEVENT (Pravastatin arm) [44]: 57
- EVENTS (Pravastatin arm) [45]: 126
- NONEVENT (Pravastatin arm) [45]: 1234
- EVENTS (Pravastatin arm) [46]: 8
- NONEVENT (Pravastatin arm) [46]: 69
- EVENTS (Pravastatin arm) [47]: 125
- NONEVENT (Pravastatin arm) [47]: 1218
- EVENTS (Pravastatin arm) [48]: 59
- NONEVENT (Pravastatin arm) [48]: 485
- EVENTS (Pravastatin arm) [49]: 74
- NONEVENT (Pravastatin arm) [49]: 802
- EVENTS (Pravastatin arm) [50]: 7
- NONEVENT (Pravastatin arm) [50]: 32
- EVENTS (Pravastatin arm) (endpt1, hCV8851047 rs45614833 HLA-DPA1, CT + TT): 126
